In patent publication US6218406A, “Farnesyl transferase inhibitors, their preparation, the pharmaceutical compositions which contain them and their use in the preparation of medicaments” (Aventis Pharma S.A., priority 1996, dated 2001):
Structures can show the parent of a compound that is named as a salt.

Molecular target: farnesyl transferase (Homo sapiens, UniProt P49354+P49356)
Experiment: Farnesyl transferase inhibition, [3H]-farnesylation of biotinylated K-ras C-terminal peptide (SPA assay)
Format: biochemical
Details: In vitro inhibitory activity (K-Ras) IC50, K-Ras substrate; 60 min at 37° C.; mean of two IC50 values
Protocol: The farnesyl transferase activity was measured by the amount farnesylated of K-ras substrate or of substrate derived from the peptide corresponding to its C-terminal part, the farnesyl group being introduced by farnesyl pyrophosphate (FPP).
It was then brought into contact with PVT-streptavidin (Amersham)® beads and was quantified by proximity scintillation (SPA assay) between the tritium and the PVT beads, by virtue of the streptavidin/biotin interaction.
Experimentally, farnesyl transferase purified according to the appended protocol was diluted, for this assay, to a concentration such that a consumption of substrates of less than 30% was obtained.
The reaction, carried out in Optiplates 96° microtitration plates, was initiated by the enzyme and lasted sixty minutes at 37° C. It was stopped by addition of 150 μl of mixture of a blocking buffer at pH 4 composed of 0.2M H3 PO4, 1.5 mM MgCl2, 0.5% (w/v) BSA, 0.05% (w/v) sodium azide containing 200 μg of PVT-streptavidin beads.
After slow agitation for thirty minutes (in order to remove the chemiluminescence), the plates were read as [^3 H]CPM in a Top Count® (Packard) scintillation counter for microplates, where they were converted into [^3 H]DPM from a range of coloured agent attenuating the scintillation (quenching).
The percentages of inhibition were calculated with respect to an inhibitor-free control after subtraction from all the values of that of a blank which only contained the substrates and the buffer.
The IC50 values were calculated or measured, from the inhibitions obtained at nine different concentrations, with Enzfitter® or Grafit® software. The IC50 values which appear in the results are the mean of measurements and calculations of two IC50 values.

SMILES | IC50 [nM]
COc1ccccc1CC(=O)N1C[C@H]2[C@@]3(c4ccc(C)cc4)CC[C@H](c4ccccc43)[C@@]2(C(=O)O)C1 (single isomer, unassigned) [Example 30, dextrorotatory enantiomer of (3aRS,4SR,9SR,9aRS)-4,9-ethano-2-[2-(2-methoxyphenyl)acetyl]-9-(4-methylphenyl)-2,3,3a,4,9,9a-hexahydro-1H-benzo[f]isoindole-3a-carboxylic Acid] | 74

Same assay, conditions: K-Ras substrate; 60 min at 37° C.; mean of two IC50 values; read-out: In vitro inhibitory activity (K-Ras) IC50

SMILES | IC50 [nM]
COc1cccc([C@]23CC[C@H](c4ccccc42)[C@@]2(C(=O)O)CN(C(=O)Cc4ccccc4OC)C[C@@H]32)c1 (relative stereo) [Example 10, (3aRS,4SR,9SR,9aRS)-4,9-ethano-9-(3-methoxyphenyl)-2-[(2-methoxyphenyl)acetyl]-2,3,3a,4,9,9a-hexahydro-1H-benzo[f]isoindole-3a-carboxylic Acid] | 160
C=C(C(=O)N1C[C@H]2[C@@]3(c4ccc(OC)cc4)CC[C@H](c4ccccc43)[C@@]2(C(=O)NCc2cccnc2)C1)c1ccccc1OC (relative stereo) [Example 76, (3aRS,4SR,9SR,9aRS)-4,9-ethano-9-(4-methoxyphenyl)-2-[2-(2-methoxyphenyl)propenoyl]-2,3,3a,4,9,9a-hexahydro-1H-benzo[f]isoindole-3a-N-(3-pyridylmethyl)carboxamide] | 244
C=C(C(=O)N1C[C@@H]2[C@]3(c4ccc(C(F)(F)F)cc4)CC[C@@H](c4ccccc43)[C@]2(C(=O)NNC(=O)c2ccccc2)C1)c1ccccc1OC (relative stereo) [Example 43, (3aRS,4SR,9SR,9aRS)-4,9-ethano-2-[2-(2-methoxyphenyl)propenoyl]-9-[4-(trifluoromethyl)phenyl]-2,3,3a,4,9,9a-hexahydro-1H-benzo[f]isoindole-3a-N'-benzoylcarbohydrazide] | 590
C=C(C(=O)N1C[C@H]2[C@@]3(c4ccc(C)cc4)CC[C@H](c4ccccc43)[C@@]2(C(=O)NCc2cccnc2)C1)c1ccccc1OC (relative stereo) [Example 17, (3aRS,4SR,9SR,9aRS)-4,9-ethano-2-[2-(2-methoxyphenyl)propenoyl]-9-(4-methylphenyl)-2,3,3a,4,9,9a-hexahydro-1H-benzo[f]isoindole-3a-N-(3-pyridylmethyl)carboxamide] | 235
C=C(C(=O)N1C[C@@H]2[C@]3(c4ccc(C)cc4)CC[C@@H](c4ccccc43)[C@]2(C(=O)NS(=O)(=O)c2ccccc2)C1)c1ccccc1OC (racemic) [Example 25, (3aRS,4SR,9SR,9aRS)-4,9-ethano-2-[2-(2-methoxyphenyl)propenoyl]-9-(4-methylphenyl)-3a-phenylsulphonylaminocarbonyl-2,3,3a,4,9,9a-hexahydro-1H-benzo[f]isoindole] | 193
C=C(C(=O)N1C[C@H]2[C@@]3(c4ccc(C)cc4)CC[C@H](c4ccccc43)[C@@]2(C(=O)NNc2ccccc2C)C1)c1ccccc1OC (relative stereo) [Example 29, (3aRS,4SR,9SR,9aRS)-4,9-ethano-2-[2-(2-methoxyphenyl)propenoyl]-9-(4-methylphenyl)-2,3,3a,4,9,9a-hexahydro-1H-benzo[f]isoindole-3a-N'-(2-methylphenyl)carbohydrazide] | 140
C=C(C(=O)N1C[C@H]2[C@@]3(c4ccc5c(c4)OCCO5)CC[C@H](c4ccccc43)[C@@]2(C(=O)NCc2cccnc2)C1)c1ccccc1OC (relative stereo) [Example 33, (3aRS,4SR,9SR,9aRS)-9-(2,3-dihydro-1,4-benzodioxin-6-yl)-4,9-ethano-2-[2-(2-methoxyphenyl)propenoyl]-2,3,3a,4,9,9a-hexahydro-1H-benzo[f]isoindole-3a-N-(3-pyridylmethyl)carboxamide] | 242
COC(=O)[C@@]12CN(C(=O)Cc3ccccc3OC)C[C@@H]1[C@]1(c3ccc(C)c(C)c3)CC[C@H]2c2ccccc21 (racemic) [Example 11, Methyl (3aRS,4SR,9SR,9aRS)-9-(3,4-dimethylphenyl)-4,9-ethano-2-[(2-methoxyphenyl)acetyl]-2,3,3a,4,9,9a-hexahydro-1H-benzo[f]isoindole-3a-carboxylate] | 345

Next, values leading:

IC50 [nM] | SMILES
36 | C=C(C(=O)N1C[C@@H]2[C@]3(c4ccc5c(c4)CCO5)CC[C@@H](c4ccccc43)[C@]2(C(=O)O)C1)c1ccccc1OC (racemic) [Example 62, (3aRS,4SR,9SR,9aRS)-9-(2,3-dihydrobenzofuran-5-yl)-4,9-ethano-2-[2-(2-methoxyphenyl)propenoyl]-2,3,3a,4,9,9a-hexahydro-1H-benzo[f]isoindole-3a-carboxylic Acid]
40 | C=C(C(=O)N1C[C@@H]2[C@]3(c4ccc(OC)c(O)c4)CC[C@@H](c4ccccc43)[C@]2(C(=O)O)C1)c1ccccc1OC (racemic) [Example 97, (3aRS,4SR,9SR,9aRS)-4,9-ethano-9-(3-hydroxy-4-methoxyphenyl)-2-[2-(2-methoxyphenyl)propenoyl]-2,3,3a,4,9,9a-hexahydro-1H-benzo[f]isoindole-3a-carboxylic Acid]
48 | C=C(C(=O)N1C[C@@H]2[C@]3(c4ccc(OC)cc4)CC[C@@H](c4ccccc43)[C@]2(C(=O)O)C1)c1ccccc1OC (racemic) [Example 74, (3aRS,4SR,9SR,9aRS)-4,9-ethano-9-(4-methoxyphenyl)-2-[2-(2-methoxyphenyl)propenoyl]-2,3,3a,4,9,9a-hexahydro-1H-benzo[f]isoindole-3a-carboxylic Acid]
460 | C=C(C(=O)N1C[C@@H]2[C@]3(c4ccc(OC)cc4)CC[C@@H](c4ccccc43)[C@]2(C(=O)OC)C1)c1ccccc1OC (racemic) [Example 73, methyl (3aRS,4SR,9SR,9aRS)-4,9-ethano-9-(4-methoxyphenyl)-2-[2-(2-methoxyphenyl)propenoyl]-2,3,3a,4,9,9a-hexahydro-1H-benzo[f]isoindole-3a-carboxylate]
40 | C=C(C(=O)N1C[C@@H]2[C@]3(c4ccc(F)cc4)CC[C@@H](c4ccccc43)[C@]2(C(=O)O)C1)c1ccccc1OC (racemic) [Example 65, (3aRS,4SR,9SR,9aRS)-4,9-ethano-9-(4-fluorophenyl)-2-[2-(2-methoxyphenyl)propenoyl]-2,3,3a,4,9,9a-hexahydro-1H-benzo[f]isoindole-3a-carboxylic acid]
325 | C=C(C(=O)N1C[C@@H]2[C@]3(c4ccc(F)cc4)CC[C@@H](c4ccccc43)[C@]2(C(=O)OC)C1)c1ccccc1OC (racemic) [Example 64, methyl (3aRS,4SR,9SR,9aRS)-4,9-ethano-9-(4-fluorophenyl)-2-[2-(2-methoxyphenyl)propenoyl]-2,3,3a,4,9,9a-hexahydro-1H-benzo[f]isoindole-3a-carboxylate]
5 | C=C(C(=O)N1C[C@@H]2[C@]3(c4cccc(Cl)c4)CC[C@@H](c4ccccc43)[C@]2(C(=O)O)C1)c1ccccc1OC (racemic) [Example 89, (3aRS,4SR,9SR,9aRS)-9-(3-chlorophenyl)-4,9-ethano-2-[2-(2-methoxyphenyl)propenoyl]-2,3,3a,4,9,9a-hexahydro-1H-benzo[f]isoindole-3a-carboxylic Acid]
5 | C=C(C(=O)N1C[C@@H]2[C@]3(c4cccc(F)c4)CC[C@@H](c4ccccc43)[C@]2(C(=O)O)C1)c1ccccc1OC (racemic) [Example 86, (3aRS,4SR,9SR,9aRS)-4,9-ethano-9-(3-fluorophenyl)-2-[2-(2-methoxyphenyl)propenoyl]-2,3,3a,4,9,9a-hexahydro-1H-benzo[f]isoindole-3a-carboxylic Acid]
508 | C=C(C(=O)N1C[C@@H]2[C@]3(c4cccc(F)c4)CC[C@@H](c4ccccc43)[C@]2(C(=O)OC)C1)c1ccccc1OC (racemic) [Example 85, methyl (3aRS,4SR,9SR,9aRS)-4,9-ethano-9-(3-fluorophenyl)-2-[2-(2-methoxyphenyl)propenoyl]-2,3,3a,4,9,9a-hexahydro-1H-benzo[f]isoindole-3a-carboxylate]
48 | C=C(C(=O)N1C[C@@H]2[C@]3(c4ccc(OC)cc4)CC[C@@H](c4ccccc43)[C@]2(C(=O)NO)C1)c1ccccc1OC (racemic) [Example 78, (3aRS,4SR,9SR,9aRS)-4,9-ethano-9-(4-methoxyphenyl)-2-[2-(2-methoxyphenyl)propenoyl]-2,3,3a,4,9,9a-hexahydro-1H-benzo[f]isoindole-3a-hydroxamic acid]
305 | C=C(C(=O)N1C[C@@H]2[C@]3(c4ccc(C)cc4)CC[C@@H](c4ccccc43)[C@]2(C(=O)OC)C1)c1ccccc1OC (racemic) [Example 1, methyl (3aRS,4SR,9SR,9aRS)-4,9-ethano-2-[2-(2-methoxyphenyl)propenoyl]-9-(4-methylphenyl)-2,3,3a,4,9,9a-hexahydro-1H-benzo[f]isoindole-3a-carboxylate]
786 | C=C(C(=O)N1C[C@@H]2[C@]3(c4cccc(N)c4)CC[C@@H](c4ccccc43)[C@]2(C(=O)OC)C1)c1ccccc1OC (racemic) [Example 93, methyl (3aRS,4SR,9SR,9aRS)-9-(3-aminophenyl)-4,9-ethano-2-[2-(2-methoxyphenyl)propenoyl]-2,3,3a,4,9,9a-hexahydro-1H-benzo[f]isoindole-3a-carboxylate hydrochloride]
